Several values for one entry are separate records, joined by “and”; a condition that tells them apart may be missing. Equal values may be shown once. Read-outs that look alike come from different tables or passages of the source.
Legend:
naïve T cells = assay: Intracellular detection of IFN-γ and IL-4 in T cells by flow cytometry; type: cell-based, human; details: T cells activated by IFN-γ primed, matured mo-DCs
Experimental: Mo-DC pre-treated in various conditions were co-cultured with naïve T cells for five days and re-stimulated with ionomycin 1 μg/ml and PMA 10 ng/ml for 2.5 h and for 3 h in the presence of a Brefeldin-A, (10 μg/ml final concentration). Cells were then washed and fixed for 15 min (Fix and Penn cell permeabilization kit, Caltag). After one washing step cells were permeabilised and stained with FITC conjugated anti interferon-γ mAB (BD-Pharmigen) and PE conjugated anti IL-4 mAb (Caltag) or with irrelevant isotype control for 30 min. Then cells were washed again, resuspended and analysed by flow cytoflorimetry.

human monocytes [1] = assay: Cytokine and chemokine secretion by human monocytes (Bio-Plex, IL-23 ELISA); type: cell-based
monocytes = assay: Apoptosis and survival of monocytes (caspase-3 assay, MTT assay); type: cell-based, human
Experimental: A) Caspase-3 assay, B) MTT assay.
The survival effect of NadA on monocytes was investigated. […] Apoptosis was not increased after a 40 hour exposure to NadAΔ351-405 or LPS. […] NadA survival effect was compared with the action of LPS or medium alone.

human monocytes [2] = assay: Long-term differentiation of monocytes, surface markers; type: cell-based; details: culture up to 7 days
Experimental: In order to evaluate the possible long-term, differentiation effect of NadA, adherent monocytes were treated with medium alone, NadAΔ351-405 or E. coli LPS and cells were cultured for seven days. At day 4 the agonists were added again to ensure a constant stimulation. Cell morphology was monitored by light microscopy after 1, 2, 3 and 7 days. […] NadAΔ351-405 thus induces both alteration cell morphology and distribution, this is a good indicator of monocyte activation and differentiation.
The long-term, differentiation effect of NadAΔ351-405 on monocytes was further investigated by measuring the expression of the antigen presentation marker MHC-II, co-stimulatory molecules CD80 and CD86 and cell-specific molecules: CD14 (monocyte), CD16 (macrophage) and CD1a (Dendritic cell).

[3] = system: allogenic CD4+ naïve T lymphocyte; assay: Allogenic mixed leukocyte reaction, naive CD4+ T-cell proliferation; type: cell-based, human
Experimental: Allogenic mixed leukocyte reaction was performed with irradiated (3000 rads from a ^137Cs source) mo-DC and purified allogenic T cells. […], LPS 1 μg/ml (positive control) and non stimulated DC (negative control) pretreated or not with IFN-γ 1000 U/ml were washed and cultured with allogenic CD4+ naïve T lymphocyte (0.3×10^5 cells/well) for 5 days at 37° C. in a humidified CO2 incubator in round-bottom 96-well microtiter plates (Costar). Proliferation was measured by pulse-labelling triplicate wells for 6 h with 1 μCi of 3H-Thymidine/well (Amersham Biosciences). Negative controls included T naive cells incubated or DC incubated alone.
^3H-Thymidine incorporation was measured by harvesting cells onto glass fiber filter paper (Pall Corporation, Life Sciences) using a 96-well semiautomatic cell harvester (Multiwash 2000, Dynatech) and counting by liquid scintillation in a […] (Wallac 1409 liquid scintillation counter).

human macrophages = assay: NadA binding to human macrophages; details: 37° C.
Experimental: The graphs plot the mean fluorescence intensities (MFI) ±SD measured in human macrophages that have been incubated with NadAΔ351-405-Alexa, at different concentrations (A), or with 100 nM NadAΔ351-405-Alexa in presence of increasing concentrations of unlabelled protein (B), for 3 hours at 37° C. or 0° C. The reported data are the average of three independent experiments repeated in triplicate.
NadA binding to monocyte-derived macrophages was also investigated. A dose-dependent association of NadA to macrophages was confirmed by MFI analysis and competition by non-labelled ligand was used to ascertain whether NadA binding was specific.

mo-DCs = assay: Alexa-NadAΔ351-405 binding to mo-DCs (flow cytometry, Scatchard analysis); parameters: species or system human; details: Scatchard plot
Experimental: In some cases, DCs primed or not with IFN-γ were treated at 37° C. for 1 hour with FCS/RPMI containing Bafilomycin A1 200 nM, incubated at 37° C. (in RPMI medium supplemented with 10% FBS and Bafilomycin A1) or 0° C. (in PBS supplemented with 10% FBS) for 3 hours with different concentrations (0.0375-5 μM) of Alexa-NadAΔ351-405 or NadA. Afterward cells were washed and suspended in FACS buffer for FACS analysis. Scatchard plots were constructed from data obtained from cell-associated mean fluorescence intensities due to cell-bound Alexa NadA were measured. The dissociation constant Kd and maximal binding capacities were then determined by Scatchard analyses.

human monocytes [4] = assay: Surface markers of human monocytes; type: cell-based
Source text: The functional effect of NadA on human monocytes and macrophages was investigated using a soluble recombinant mutant lacking the membrane anchor and a full length protein expressed in E. coli OMV or N meningitidis OMV. To better define the immuno-modulatory activity of NadA, the cells were stimulated with protein plus or minus both microbial stimulus (LPS) and immunological stimulus (IFNγ).
The effect of NadAΔ351-405 on monocyte and macrophage cells was further investigated by measuring the expression of the antigen presentation marker MHC-II, the co-stimulatory molecules CD80 and CD86 and the cell adhesion molecule ICAM-1.

[5] = Heparin-agarose affinity chromatography; type: binding; details: salt gradient 0.05-3M NaCl
Experimental: Using, affinity chromatography with different buffers (phosphate 20 mM and hepes 20 mM), pH (5.5, 7.4 and 8.0) and CaCl2 concentrations, the binding of NadA to heparin was further investigated. A solution of hepes 20 mM containing 5 μg NadA was added to 100 μl of heparin-agarose pre-equilibrated in the same buffer. After washing, bound protein was eluted using a salt gradient (0.05-3M NaCl). All the fractions from the previous steps were collected and transferred to nitrocellulose membrane using Dot-blot. The protein was detected with a rabbit polyclonal anti-NadA antibody and phosphatase alcalyne-conjugated goat anti-rabbit anti-IgG with its substrate. This protocol has shown a heterogeneous behaviour for NadA. A fraction of the protein elutes at physiological salt concentrations (100-150 mM NaCl) and a further one elutes at high salt concentrations (up to 3M NaCl).

With NadAΔ351-405 as the substance, how does the “IFN-γ+ T cells, % of total T cell population” value (naïve T cells) read?
The value was 13-31%.

And the “IFN-γ+/IL-4+ T cells, % of total T cell population” value (naïve T cells)?
Its value is 4-12%.

And the “IL-4+ T cells, % of total T cell population” value (naïve T cells)?
Its value is 3-18%.

What about the IL-10 production (human monocytes [1]) of the same substance?
Its IL-10 production is “induced the production”.

And the IL-23 expression (human monocytes [1])?
Its IL-23 expression is “only in the presence of IFNγ”.

What about the MCP-1 production (human monocytes [1]) of the same substance?
The MCP-1 production was “significant levels”.

What about the “IL-1α, IL-1β and TNFα secretion” value (human monocytes [1]; NadA alone) of the same substance?
The value was “not significantly induced”.

What about the IL-8 secretion (human monocytes [1]; NadA alone) of the same substance?
Its IL-8 secretion is “significant secretion”.

And the IP-10 production (human monocytes [1]; NadA alone)?
Its IP-10 production is “In neither monocytes nor macrophages was NadA alone able to produce IP-10”.

And the “IL-12(p40) and IL-12(p70) expression” value (human monocytes [1]; alone or in the presence of LPS)?
Its value is “not significantly expressed”.

And the “expression of IL-1α and TNFα” value (human monocytes [1]; co-stimulation with LPS)?
Its value is “inhibited”.

And the GM-CSF secretion (human monocytes [1]; even with IFNγ co-stimulation)?
The GM-CSF secretion was “does not stimulate secretion”.

And the “IL-10 expression (so in the source)” value (human monocytes [1]; only in the presence of IFNγ and LPS)?
The value was “efficiently increased”.

And the IL-6 secretion (human monocytes [1]; presence or absence of LPS)?
The IL-6 secretion was “significant secretion”.

And the MIP-1α production (human monocytes [1]; with or without co-stimulus)?
Its MIP-1α production is “produced”.

And the “apoptotic effect compared with medium-treated monocytes” value (monocytes)?
Its value is “four times less”.

And the “apoptotic effect compared with the amount induced by LPS” value (monocytes)?
The value was “two times less”.

What about the CD1a expression (human monocytes [2]) of the same substance?
The CD1a expression was “not increased”.

And the CD14 expression (human monocytes [2])?
The CD14 expression was “steadily increased on days two and three”.

And the CD16 expression (human monocytes [2])?
Its CD16 expression is “increased more intensely than in the control cells in the first three days”.

What about the CD80 expression (human monocytes [2]) of the same substance?
Its CD80 expression is “not over-expressed”.

And the CD86 expression (human monocytes [2])?
The CD86 expression was “increased more intensely than in the control cells in the first three days”.

And the HLA-DR surface expression (human monocytes [2])?
Its HLA-DR surface expression is “reached a maximal expression level on day three”.

And the “T lymphocyte activation by mo-DCs” value ([3]; absence of IFN-γ priming, 1 μM)?
Its value is “not able to induce a mo-DC phenotype competent for T lymphocyte activation”.

What about the “T cell proliferation relative to LPS-matured mo-DCs” value ([3]; mo-DCs primed with INFγ then stimulated with NadA) of the same substance?
Its value is 30-40%.

And the “decrease of the signal associated to macrophages by non-labelled ligand” value (human macrophages)?
The value was −50%.

What about the Kd (mo-DCs; read-out: Kd1, high affinity binding sites) of the same substance?
Its Kd is 50 to 100 nM and 90 nM.

And the Kd (mo-DCs; read-out: Kd2, low affinity binding sites)?
The Kd was 3000 to 5000 nM and 4000 nM.

What about the CD80 expression (human monocytes [4]; co-stimulation with IFN-γ) of the same substance?
Its CD80 expression is “increased”.

And the “CD86 or HLA-DR expression” value (human monocytes [4]; with LPS or IFN-γ)?
The value was “No NadA immunomodulatory effect”.

What about the “NaCl concentration of elution from heparin-agarose, further fraction” value [5] of the same substance?
Its value is “up to 3 M”.

What about the “NaCl concentration of elution from heparin-agarose, one fraction” value [5] of the same substance?
The value was 100 to 150 mM.
